Experimental data reported in patent US6121274A, “Dihydrobenzofurane” (Byk Gulden Lomberg Chemische Fabrik GmbH, priority 1994, dated 2000).

Test system: PDE IV
Experiment: Inhibition of PDE IV activity (Bauer and Schwabe method adapted to microtiter plates)
Assay type: biochemical
Details: Table A; two-step PDE / 5'-nucleotidase assay, ion-exchange separation

Structure (SMILES)	Inhibition of PDE IV activity, -log IC50
COc1ccc(C(=O)Nc2c(Cl)cncc2Cl)c2c1OC(C)(C)C2 [Compound 1, 2,3-Dihydro-2,2-dimethyl-7-methoxybenzofuran-4-carboxylic acid-N-3,5-dichloro-4-pyridylamide]	8.47
COc1ccc(C(=O)Nc2c(Cl)cncc2Cl)c2c1OC1(CCCC1)C2 [Compound 2, 2,3-Dihydro-7-methoxybenzofuran-2-spiro-1'-cyclopentan-4-carboxylic acid-N-3,5-dichloro-4-pyridylamide]	9.42
O=C(Nc1c(Cl)cncc1Cl)c1ccc(OC(F)F)c2c1CC1(CCCC1)O2 [Compound 3, 7-Difluoromethoxy-2,3-dihydrobenzofuran-2-spiro-1'-cyclopentane-4-carboxylic acid-N-3,5-dichloro-4-pyridylamide]	9.87
COc1ccc(C(=O)Nc2c(Cl)cncc2Cl)c2c1OC1(CCCCC1)C2 [Compound 4, 2,3-dihydro-7-methoxybenzofuran-2-spiro-1'-cyclohexane-4-carboxylic acid-N-3,5-dichloro-4-pyridylamide]	9.09
COc1ccc(C(=O)Nc2c(Cl)cncc2Cl)c2c1OC1(CCOCC1)C2 [Compound 5, 2,3-Dihydro-7-methoxybenzofuran-2-spiro-1'-(4'-oxacyclohexane)-4-carboxylic acid-N-3,5-dichloro-4-pyridylamide]	8.57
CCC1(CC)Cc2c(C(=O)Nc3c(Cl)cncc3Cl)ccc(OC)c2O1 [Compound 6, 2,2-Diethyl-2,3-dihydro-7-methoxybenzofuran-4-carboxylic acid-N-3,5-dichloro-4-pyridylamide]	8.63
COc1ccc(C(=O)Nc2c(Cl)cccc2Cl)c2c1OC1(CCCC1)C2 [Compound 7, 2,3-Dihydro-7-methoxybenzofuran-2-spiro-1'-cyclopentane-4-carboxylic acid-2,6-dichloroanilide]	8.57
COc1ccc(C(=O)Nc2c(F)cccc2F)c2c1OC1(CCCC1)C2 [Compound 8, 2,3-Dihydro-7-methoxybenzofuran-2-spiro-1'-cyclopentane-4-carboxylic acid-2,6-difluoroanilide]	8.42
